From the NIST ThermoML archive (doi:10.1021/je300603d)

Experiment: mn = molality of the nth substance listed, in mol/kg
Conditions: 101 kPa, Liquid; for electrical conductivity: Alternating current cell with electrodes; for viscosity: Falling or rolling sphere viscometry; for mass density: Vibrating tube method

F[B-](F)(F)F.[Na+] [sodium tetrafluoroborate] + CCCCn1cc[n+](C)c1.F[B-](F)(F)F
Conditions | electrical conductivity [S/m] | mass density [kg/m3] | viscosity [mPa·s]
238.15 K, m1 = 0.058 | 0.00083 | – | –
238.15 K, m1 = 0.1159 | 0.00077 | – | –
238.15 K, m1 = 0.1739 | 0.00071 | – | –
258.15 K, m1 = 0.058 | 0.0211 | – | –
258.15 K, m1 = 0.1159 | 0.0201 | – | –
258.15 K, m1 = 0.1739 | 0.0188 | – | –
278.15 K, m1 = 0.0273 | – | 1218 | –
278.15 K, m1 = 0.054 | – | 1219.4 | –
278.15 K, m1 = 0.058 | 0.1075 | 1219.2 | 400.2
278.15 K, m1 = 0.0676 | – | 1220.7 | –
278.15 K, m1 = 0.0903 | – | 1221.3 | –
278.15 K, m1 = 0.1069 | – | 1222.4 | –
278.15 K, m1 = 0.1159 | 0.103 | 1222.8 | 421.4
278.15 K, m1 = 0.1377 | – | 1224.3 | –
278.15 K, m1 = 0.1739 | 0.0986 | 1226.2 | 454.8
288.15 K, m1 = 0.0273 | – | 1210.7 | –
288.15 K, m1 = 0.054 | – | 1212.2 | –
288.15 K, m1 = 0.058 | – | 1212.1 | 204.4
288.15 K, m1 = 0.0676 | – | 1213.4 | –
288.15 K, m1 = 0.0903 | – | 1214 | –
288.15 K, m1 = 0.1069 | – | 1215.1 | –
288.15 K, m1 = 0.1159 | – | 1215.5 | 215.5
288.15 K, m1 = 0.1377 | – | 1217 | –
288.15 K, m1 = 0.1739 | – | 1218.9 | 232.6
298.15 K, m1 = 0.0273 | – | 1203.5 | –
298.15 K, m1 = 0.054 | – | 1204.9 | –
298.15 K, m1 = 0.058 | 0.341 | 1205 | 115.5
298.15 K, m1 = 0.0676 | – | 1206.1 | –
298.15 K, m1 = 0.0903 | – | 1206.8 | –
298.15 K, m1 = 0.1069 | – | 1207.9 | –
298.15 K, m1 = 0.1159 | 0.328 | 1208.3 | 121.4
298.15 K, m1 = 0.1377 | – | 1209.8 | –
298.15 K, m1 = 0.1739 | 0.316 | 1211.6 | 130.4
308.15 K, m1 = 0.0273 | – | 1196.3 | –
308.15 K, m1 = 0.054 | – | 1197.7 | –
308.15 K, m1 = 0.058 | – | 1198 | 70.66
308.15 K, m1 = 0.0676 | – | 1199 | –
308.15 K, m1 = 0.0903 | – | 1199.6 | –
308.15 K, m1 = 0.1069 | – | 1200.7 | –
308.15 K, m1 = 0.1159 | – | 1201.1 | 74.52
308.15 K, m1 = 0.1377 | – | 1202.6 | –
308.15 K, m1 = 0.1739 | – | 1204.4 | 79.37
318.15 K, m1 = 0.0273 | – | 1189.2 | –
318.15 K, m1 = 0.054 | – | 1190.7 | –
318.15 K, m1 = 0.058 | 0.794 | 1190.9 | 46.1
318.15 K, m1 = 0.0676 | – | 1191.9 | –
318.15 K, m1 = 0.0903 | – | 1192.5 | –
318.15 K, m1 = 0.1069 | – | 1193.6 | –
318.15 K, m1 = 0.1159 | 0.769 | 1194 | 48.94
318.15 K, m1 = 0.1377 | – | 1195.5 | –
318.15 K, m1 = 0.1739 | 0.745 | 1197.3 | 51.72
328.15 K, m1 = 0.0273 | – | 1182.2 | –
328.15 K, m1 = 0.054 | – | 1183.6 | –
328.15 K, m1 = 0.058 | – | 1183.9 | 31.69
328.15 K, m1 = 0.0676 | – | 1184.9 | –
328.15 K, m1 = 0.0903 | – | 1185.5 | –
328.15 K, m1 = 0.1069 | – | 1186.6 | –
328.15 K, m1 = 0.1159 | – | 1187 | 33.98
328.15 K, m1 = 0.1377 | – | 1188.4 | –
328.15 K, m1 = 0.1739 | – | 1190.3 | 35.69
338.15 K, m1 = 0.0273 | – | 1175.3 | –
338.15 K, m1 = 0.054 | – | 1177 | –
338.15 K, m1 = 0.058 | 1.5 | 1176.8 | 22.75
338.15 K, m1 = 0.0676 | – | 1177.9 | –
338.15 K, m1 = 0.0903 | – | 1178.6 | –
338.15 K, m1 = 0.1069 | – | 1179.6 | –
338.15 K, m1 = 0.1159 | 1.464 | 1180 | 23.85
338.15 K, m1 = 0.1377 | – | 1181.5 | –
338.15 K, m1 = 0.1739 | 1.425 | 1183.3 | 23.94
348.15 K, m1 = 0.0273 | – | 1168.4 | –
348.15 K, m1 = 0.054 | – | 1169.8 | –
348.15 K, m1 = 0.058 | – | 1169.8 | 16.93
348.15 K, m1 = 0.0676 | – | 1171 | –
348.15 K, m1 = 0.0903 | – | 1171.7 | –
348.15 K, m1 = 0.1069 | – | 1172.7 | –
348.15 K, m1 = 0.1159 | – | 1173.1 | 17.63
348.15 K, m1 = 0.1377 | – | 1174.6 | –
348.15 K, m1 = 0.1739 | – | 1176.4 | 17.97
358.15 K, m1 = 0.0273 | – | 1161.6 | –
358.15 K, m1 = 0.054 | – | 1163 | –
358.15 K, m1 = 0.058 | 2.47 | 1162.7 | 13
358.15 K, m1 = 0.0676 | – | 1164.2 | –
358.15 K, m1 = 0.0903 | – | 1164.8 | –
358.15 K, m1 = 0.1069 | – | 1165.9 | –
358.15 K, m1 = 0.1159 | 2.4 | 1166.3 | 13.53
358.15 K, m1 = 0.1377 | – | 1167.7 | –
358.15 K, m1 = 0.1739 | 2.35 | 1169.6 | 14.01
378.15 K, m1 = 0.058 | 3.66 | – | –
378.15 K, m1 = 0.1159 | 3.57 | – | –
378.15 K, m1 = 0.1739 | 3.5 | – | –
398.15 K, m1 = 0.058 | 5.04 | – | –
398.15 K, m1 = 0.1159 | 4.93 | – | –
398.15 K, m1 = 0.1739 | 4.84 | – | –
418.15 K, m1 = 0.058 | 6.58 | – | –
418.15 K, m1 = 0.1159 | 6.45 | – | –
418.15 K, m1 = 0.1739 | 6.35 | – | –
438.15 K, m1 = 0.058 | 8.24 | – | –
438.15 K, m1 = 0.1159 | 8.11 | – | –
438.15 K, m1 = 0.1739 | 7.98 | – | –
458.15 K, m1 = 0.058 | 10 | – | –
458.15 K, m1 = 0.1159 | 9.85 | – | –
458.15 K, m1 = 0.1739 | 9.7 | – | –
